The source of these data is patent US6083955A, “Arylethenesulfonamide derivatives and drug composition containing the same” (Yamanouchi Pharmaceutical Co., Ltd., priority 1995, dated 2000).

The target of assay [1] is T1, human ETA receptor (Homo sapiens, UniProt P25101).
T1 sequence (P25101 21-427): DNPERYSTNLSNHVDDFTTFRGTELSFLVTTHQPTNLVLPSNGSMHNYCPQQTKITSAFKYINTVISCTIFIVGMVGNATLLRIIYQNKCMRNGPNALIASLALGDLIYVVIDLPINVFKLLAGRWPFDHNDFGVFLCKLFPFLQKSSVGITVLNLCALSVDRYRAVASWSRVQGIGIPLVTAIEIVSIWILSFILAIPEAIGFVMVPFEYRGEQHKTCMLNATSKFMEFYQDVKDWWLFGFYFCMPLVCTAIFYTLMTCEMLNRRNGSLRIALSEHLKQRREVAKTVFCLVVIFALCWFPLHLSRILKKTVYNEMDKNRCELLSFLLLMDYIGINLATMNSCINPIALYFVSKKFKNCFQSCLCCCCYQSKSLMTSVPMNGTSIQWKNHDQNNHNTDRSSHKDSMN
As to the kind of experiment: Test on Inhibition of Binding of Endothelin (ET-1) to Human ETA Receptor. The method, then: (1) Test on Inhibition of Binding of Endothelin (ET-1) to Human ETA Receptor
cDNA of human ETA receptor was obtained from mRNA of human lung by means of an RT-PCR and then transferred into pEF-BOS, a vector for expression, to prepare plasmid. The prepared plasmid was added to a culture of COS-1 cells (cell strain derived from renal cells of African green monkey) with DEAE-dextran and cDNA of human ETA was transfected to COS-1 cells. Then it was incubated for three days in a conventional DMEM (containing 10% of FBS) and the COS-1 cells recovered therefrom were suspended in a hypotonic buffer (10 mM Tris-HCl and 5 mM EDTA; pH 7.4) followed by homogenizing the cells using a Polytron. The suspension in which the cells were homogenized was subjected to an ultracentrifugation (100,000G for 30 minutes at 4° C.), the resulting precipitate (cell membrane fraction) was re-suspended in a Tris buffer (50 mM Tris-HCl and 10 mM MgCl2; pH 7.4) and the suspension was preserved by freezing at -80° C. (protein amount: about 1 mg/ml).
In conducting the experiment of binding the receptor, the frozen cell membrane sample was melted and resuspended in an incubation buffer (50 mM Tris-HCl, 10 mM MgCl2 and 0.01% bovine serum albumin; pH 7.4). The membrane suspension (200 μl) containing 1.25 μg as a membrane protein, 25 μl of an incubation buffer containing a test compound in various concentrations and 25 μl of [^125 I] ET-1 (specific activity: 2,200 Ci/mM; final concentration: […]) were incubated together at 25° C. for three hours and then filtered through a glass fiber filter using a Brandel cell harvester. Measurement of radioactivity on the glass fiber filter was conducted by means of a gamma-counter (counting efficiency: 81%). Nonspecific binding was determined by the use of a test buffer containing 0.1 μM of ET-1. Inhibiting activity of the test compound to [^125 I] ET-1 was calculated as a concentration (IC50) necessary for inhibiting 50% of the specific binding.

The subject of assay [2] is big ET-1-induced pressor responses. As to the kind of experiment: Test on Inhibition of Big ET-1-induced Pressor Responses in Pithed Rats. In kind it is in vivo, male Wistar rats. Conditions: Rattus norvegicus, 0.5 h, read-out: DR2. As to the method:
(3) Test on Inhibition of Big ET-1-induced Pressor Responses in Pithed Rats
Male Wistar rats (body weight: […]) were anesthetized by sodium pentobarbital (60 mg/kg, i.p.) and a cannula for artificial ventilation was inserted into a trachea. Spinal cord was broken by inserting a rod made of steel thereinto and then the rat was connected to an artificial respirator. A catheter for measuring the systemic arterial blood pressure was inserted into a carotid artery while another catheter for administering big ET-1 was inserted into a femoral vein. After 30 minutes from the oral administration of a test compound at doses of 0.1 to 10 mg/kg, the rat was pithed and then big ET-1 was intravenously administered at doses of 0.1 to 3.2 nmol/kg in a cumulative manner. Activity of the test compound was evaluated by the dose (DR2 value) whereby the dose-response curve of pressor responses by big ET-1 to the right hand direction to an extent of two-fold.

[3] abbreviates: inhibition of [^125 I] ET-1 specific binding, COS-1 cell membranes expressing human ETA, pH 7.4, 25° C., three hours, read-out: IC50.
The mark [4] stands for this setting: oral administration 30 minutes before pithing, dose shifting big ET-1 pressor dose-response curve two-fold to the right.

pIC50: −log10 of the molar value. Read-outs that look alike come from different tables or passages of the source.

Regarding `CCC(=Cc1ccccc1)S(=O)(=O)Nc1nc(-c2ncccn2)nc(OC)c1Oc1ccccc1OC.[K]` [Example 38, Potassium N-[6-methoxy-5-(2-methoxyphenoxy)-2-(2pyrimidinyl)-4-pyrimidinyl]-1-ethyl-2-phenylethenesulfonamidate], the pIC50 (commonly the IC50 on a negative log10 scale, so that one unit is a factor of ten) in assay [1] (setting [3]) is 8.48. Besides, the ED (2-fold shift) in assay [2] (po) is 0.65 mg/kg.
On to `C#CCOc1nc(-c2ncccn2)nc(NS(=O)(=O)C=Cc2ccccc2)c1Oc1ccccc1OC` [Example 13, N-[6-(2-propynyloxy)-5-(2-methoxyphenoxy)-2-(2-pyrimidinyl)-4-pyrimidinyl]-2-phenylethenesulfonamide], for which the pIC50 in assay [1] (setting [3]) was 8.26.
Same read-out and setting: the same measure for `COc1cc(OC)cc(-c2nc(NS(=O)(=O)C=Cc3ccccc3)c(Oc3ccccc3OC)c(OC)n2)c1` [Example 22, N-[2-(3,5-Dimethoxyphenyl)-6-methoxy-5-(2-methoxyphenoxy)-4-pyrimidinyl]-2-phenylethenesulfonamide]: 8.02; for `COc1ccccc1Oc1c(NS(=O)(=O)C=Cc2ccc3ccccc3c2)nc(-c2ncccn2)nc1OC` [Example 45, N-[6-Methoxy-5-(2-methoxyphenoxy)-2-(2-pyrimidinyl)-4-pyrimidinyl]-2-(2-naphthyl)ethenesulfonamide]: 8.36.
On to `COc1ccccc1Oc1c(NS(=O)(=O)C=Cc2ccccc2)nc(-c2ncccn2)nc1OCCF` [Example 8, N-[6-(2-fluoroethoxy)-5-(2-methoxyphenoxy)-2-(2-pyrimidinyl)-4-pyrimidinyl]-2-phenylethenesulfonamide], for which the pIC50 in assay [1] (setting [3]) was 8.54.
In turn, `COc1ccccc1Oc1c(NS(=O)(=O)C=Cc2ccccc2)nc(-c2ncccn2)nc1OC` [Example 2, N-[6-methoxy-5-(2-methoxyphenoxy)-2-(2-pyrimidinyl)-4-pyrimidinyl]-2-phenylethenesulfonamide] gave a pIC50 in assay [1] of 8.51. Besides, in assay [2] (po), the ED (2-fold shift) is 0.61 mg/kg.
On to `COc1ccccc1Oc1c(NS(=O)(=O)C(C)=Cc2ccccc2)nc(-c2ncccn2)nc1OC` [Example 37, N-[6-Methoxy-5-(2-methoxyphenoxy)-2-(2-pyrimidinyl)-4-pyrimidinyl]-1-methyl-2-phenylethenesulfonamide], for which the pIC50 in assay [1] (setting [3]) was 8.80.
Turning to `COc1ccccc1Oc1c(NS(=O)(=O)c2ccc(C(C)(C)C)cc2)nc(-c2ncccn2)nc1OCCO` [Comparative Compound, Bosentan, reference compound], the ED (2-fold shift) in assay [2] (setting [4]) was determined as 32 mg/kg.
Turning to `COCCOc1nc(-c2ncccn2)nc(NS(=O)(=O)C=Cc2ccccc2)c1Oc1ccccc1OC` [Example 6, N-[6-(2-Methoxyethoxy)-5-(2-methoxyphenoxy)-2-(2-pyrimidinyl)-4-pyrimidinyl]-2-phenylethenesulfonamide], the pIC50 in assay [1] (setting [3]) is 8.32.
With `COc1ccccc1Oc1c(NS(=O)(=O)C=Cc2ccccc2)nc(-c2ccsc2)nc1OC` [Example 32, N-[6-Methoxy-5-(2-methoxyphenoxy)-2-(3-thienyl)-4-pyrimidinyl]-2-phenylethenesulfonamide], the pIC50 in assay [1] (setting [3]) was 8.29.
Take `COc1ccccc1Oc1c(NS(=O)(=O)C=Cc2cccs2)nc(-c2ncccn2)nc1OC` [Example 42, N-[6-Methoxy-5-(2-methoxyphenoxy)-2-(2-pyrimidinyl)-4-pyrimidinyl]-2-(2-thienyl)ethenesulfonamide]: in assay [1] (setting [3]), the pIC50 was 8.82. Also, the ED (2-fold shift) in assay [2] (setting [4]) was 1.85 mg/kg.
In the case of `COc1ccccc1Oc1c(NS(=O)(=O)C=Cc2ccccc2)nc(-c2csc(C)n2)nc1OC` [Example 33, N-[6-Methoxy-5-(2-methoxyphenoxy)-2-(2-methyl-4-thiazolyl)-4-pyrimidinyl]-2-phenylethenesulfonamide], the pIC50 in assay [1] (setting [3]) is 8.11.
With `COc1ccccc1Oc1c(NS(=O)(=O)C=Cc2ccccc2Cl)nc(-c2ncccn2)nc1OC` [Example 47, N-[6-Methoxy-5-(2-methoxyphenoxy)-2-(2-pyrimidinyl)-4-pyrimidinyl]-2-(2-chlorophenyl)ethenesulfonamide], the pIC50 in assay [1] (setting [3]) is 8.52.
For the molecule `COc1ccccc1Oc1c(NS(=O)(=O)C=Cc2ccccc2)nc(-c2ccncc2)nc1OC` [Example 27, N-[6-Methoxy-5-(2-methoxyphenoxy)-2-(4-pyridyl)-4-pyrimidinyl]-2-phenylethenesulfonamide], the pIC50 in assay [1] (setting [3]) is 8.23.
Take `COc1ccccc1Oc1c(NS(=O)(=O)C=Cc2ccccc2)nc(-c2ccoc2)nc1OC` [Example 34, N-[6-Methoxy-5-(2-methoxyphenoxy)-2-(3-furyl)-4-pyrimidinyl]-2-phenylethenesulfonamide]: in assay [1] (setting [3]), the negative logarithm of the IC50 (pIC50) is 8.01.
On to `COc1ccccc1Oc1c(NS(=O)(=O)C=Cc2ccc(C)cc2)nc(-c2ncccn2)nc1OC` [Example 39, N-[6-Methoxy-5-(2-methoxyphenoxy)-2-(2-pyrimidinyl)-4-pyrimidinyl]-2-(4-methylphenyl)ethenesulfonamide], for which the pIC50 in assay [1] (setting [3]) is 8.55.
With `COc1ccccc1Oc1c(NS(=O)(=O)C=Cc2ccccc2)nc(-c2ncccn2)nc1OCCO` [Example 1, potassium N-[6-(2-hydroxyethoxy)-5-(2-methoxyphenoxy)-2-(2-pyrimidinyl)-4-pyrimidinyl]-2-phenylethenesulfonamidate], in assay [1] (setting [3]), the pIC50 was 8.80.
